The target of series [1] is T1, DPP-IV (Homo sapiens, UniProt P27487).
T1 construct: an extract of the human colon carcinoma cell line Caco-2 is used as the DPP IV source; host or cells: Caco-2 (differentiated to induce DPP-IV expression), Nonidet-P40 solubilised extract
The series is described as follows: DPP-IV assay with extract of Caco-2 cells as DPP IV source. The series is classed as biochemical. The conditions noted are these: extract of human colon carcinoma cell line Caco-2 as DPP IV source, substrate AFC 100 μM, 60 minutes, ambient temperature; read-out: DPP IV inhibition IC50. Here is the method: This cell line was obtained from the American Type Culture Collection (ATCC HTB 37). […] The cell extract was obtained from cells solubilised in a buffer (10 mM Tris HCl, 0.15 M NaCl, 0.04 t.i.u. aprotinin, 0.5% Nonidet-P40, pH 8.0) by centrifugation at 35,000 g for 30 minutes at 4° C. (to remove cell debris).
The DPP-IV assay was carried out as follows:
50 μl of substrate solution (AFC; AFC is amido-4-trifluoromethylcoumarin), final concentration 100 μM, were placed in black microtitre plates. 20 μl of assay buffer (final concentrations 50 mM Tris HCl pH 7.8, 50 mM NaCl, 1% DMSO) was pipetted in. The reaction was started by the addition of 30 μl of solubilised Caco-2 protein (final concentration 0.14 μg of protein per well). The test substances under investigation were typically added prediluted to 20 μl, while the volume of assay buffer was then reduced accordingly. The reaction was carried out at ambient temperature, the incubation period was 60 minutes. […] Dummy values (corresponding to 0% activity) were obtained in mixtures with no Caco-2 protein (volume replaced by assay buffer), control values (corresponding to 100% activity) were obtained in mixtures without any added substance.

Series [2] concerns rats. In words: Tolerability after oral administration in rats. The series is classed as in vivo. The conditions noted are these: oral administration of 30 mg/kg.

T1 sequence (P27487 whole entry): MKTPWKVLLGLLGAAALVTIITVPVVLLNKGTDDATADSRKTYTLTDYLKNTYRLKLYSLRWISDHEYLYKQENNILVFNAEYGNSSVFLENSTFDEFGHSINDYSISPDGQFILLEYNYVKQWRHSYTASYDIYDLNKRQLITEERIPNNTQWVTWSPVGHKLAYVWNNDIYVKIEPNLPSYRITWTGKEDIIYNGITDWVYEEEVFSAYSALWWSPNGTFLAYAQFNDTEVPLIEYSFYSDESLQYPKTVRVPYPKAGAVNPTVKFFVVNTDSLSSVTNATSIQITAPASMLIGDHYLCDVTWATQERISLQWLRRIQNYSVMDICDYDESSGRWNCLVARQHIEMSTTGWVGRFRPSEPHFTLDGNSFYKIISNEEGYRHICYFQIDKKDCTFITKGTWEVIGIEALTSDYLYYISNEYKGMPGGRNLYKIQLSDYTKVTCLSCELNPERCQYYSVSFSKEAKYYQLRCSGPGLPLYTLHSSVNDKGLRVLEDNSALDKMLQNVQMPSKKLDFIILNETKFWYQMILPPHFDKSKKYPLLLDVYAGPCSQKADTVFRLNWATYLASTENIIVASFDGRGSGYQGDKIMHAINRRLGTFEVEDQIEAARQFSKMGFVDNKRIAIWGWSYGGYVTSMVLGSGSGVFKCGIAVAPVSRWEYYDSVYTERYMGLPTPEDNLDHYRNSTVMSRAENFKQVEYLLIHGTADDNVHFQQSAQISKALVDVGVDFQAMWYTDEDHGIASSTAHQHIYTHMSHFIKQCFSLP

In general, IC50 refers to the concentration needed to halve the response being measured. Usually melting point stands for the temperature of the solid-liquid transition. Regarding `CC(C)=CCn1c(N2CCC[C@H](N)C2)nc2c1c(=O)n(CCc1cccc(O)c1)c(=O)n2C` [2(22), 1-[2-(3-hydroxy-phenyl)-ethyl]-3-methyl-7-(3-methyl-2-buten-1-yl)-8-((S)-3-amino-piperidin-1-yl)-xanthine], the melting point is 168 to 170 °C. In addition, the IC50 in series [1] was found to be 0.066 µM.
Take `CC(C)=CCn1c(N2CCCC(N)C2)nc2c1c(=O)n(CCc1ccccn1)c(=O)n2C` (centres unmarked) [1(60), 1-[2-(pyridin-2-yl)-ethyl]-3-methyl-7-(3-methyl-2-buten-1-yl)-8-(3-amino-piperidin-1-yl)-xanthine]: the melting point is 117 to 120 °C. Besides, the IC50 in series [1] was determined as 0.057 µM.
On the same counts, the results for `Cn1c(=O)c2c(nc(N3CCCC(N)C3)n2Cc2ccccc2)n(CC(=O)O)c1=O` (centres unmarked) [Example 6, 1-methyl-3-carboxymethyl-7-benzyl-8-(3-amino-piperidin-1-yl)-xanthine] are 212 to 215 °C and 0.055 µM.
As for `Cc1cccc(-n2c(N3CCCC(N)C3)nc3c2c(=O)n(C)c(=O)n3C)c1` (centres unmarked) [1(62), 1,3-dimethyl-7-(3-methyl-phenyl)-8-(3-amino-piperidin-1-yl)-xanthine], the IC50 in series [1] came to 0.167 µM.
In the case of `CC(C)=CCn1c(N(C)CCN)nc2c1c(=O)n(C)c(=O)n2C` [1(35), 1,3-dimethyl-7-(3-methyl-2-buten-1-yl)-8-[N-(2-aminoethyl)-methylamino]-xanthine], the IC50 in series [1] was determined as 0.095 µM.
Still for that read-out and setting: the figure for `COCCn1c(=O)c2c(nc(N3CCCC(N)C3)n2CC=C(C)C)n(C)c1=O` (centres unmarked) [1(28), 1-(2-methoxyethyl)-3-methyl-7-(3-methyl-2-buten-1-yl)-8-(3-amino-piperidin-1-yl)-xanthine] is 0.166 µM.
For `Cn1c(=O)c2c(nc(N3CCCC(N)C3)n2Cc2ccccc2)n(C)c1=O` (centres unmarked) [Example 1(2), 1,3-dimethyl-7-benzyl-8-(3-amino-piperidin-1-yl)-xanthine], the “toxic side effects / tolerability” value in series [2] is “no toxic side effects could be detected”.
With `CC(C)=CCn1c(N2CCCC(N)C2)nc2c1c(=O)n(C)c(=O)n2CC(=O)c1ccccc1` (centres unmarked) [2(56), 1-methyl-3-(2-phenyl-2-oxo-ethyl)-7-(3-methyl-2-buten-1-yl)-8-(3-amino-piperidin-1-yl)-xanthine], in series [1], the IC50 was 0.064 µM.

Source of the values: US20130165428A1, “XANTHINE DERIVATIVES, THE PREPARATION THEREOF AND THEIR USE AS PHARMACEUTICAL COMPOSITIONS” (Boehringer Ingelheim Pharma GmbH & Co. KG, priority 2001, published 2013).
